Results from BindingDB's records for patent US20230382904 (The Johns Hopkins University, 2023).

Experiments:
[1] = target: T1, Mitogen-activated protein kinase kinase kinase 12 (Homo sapiens, UniProt Q12852); assay: DLK Biochemical Assay
T1 sequence (Q12852 whole entry): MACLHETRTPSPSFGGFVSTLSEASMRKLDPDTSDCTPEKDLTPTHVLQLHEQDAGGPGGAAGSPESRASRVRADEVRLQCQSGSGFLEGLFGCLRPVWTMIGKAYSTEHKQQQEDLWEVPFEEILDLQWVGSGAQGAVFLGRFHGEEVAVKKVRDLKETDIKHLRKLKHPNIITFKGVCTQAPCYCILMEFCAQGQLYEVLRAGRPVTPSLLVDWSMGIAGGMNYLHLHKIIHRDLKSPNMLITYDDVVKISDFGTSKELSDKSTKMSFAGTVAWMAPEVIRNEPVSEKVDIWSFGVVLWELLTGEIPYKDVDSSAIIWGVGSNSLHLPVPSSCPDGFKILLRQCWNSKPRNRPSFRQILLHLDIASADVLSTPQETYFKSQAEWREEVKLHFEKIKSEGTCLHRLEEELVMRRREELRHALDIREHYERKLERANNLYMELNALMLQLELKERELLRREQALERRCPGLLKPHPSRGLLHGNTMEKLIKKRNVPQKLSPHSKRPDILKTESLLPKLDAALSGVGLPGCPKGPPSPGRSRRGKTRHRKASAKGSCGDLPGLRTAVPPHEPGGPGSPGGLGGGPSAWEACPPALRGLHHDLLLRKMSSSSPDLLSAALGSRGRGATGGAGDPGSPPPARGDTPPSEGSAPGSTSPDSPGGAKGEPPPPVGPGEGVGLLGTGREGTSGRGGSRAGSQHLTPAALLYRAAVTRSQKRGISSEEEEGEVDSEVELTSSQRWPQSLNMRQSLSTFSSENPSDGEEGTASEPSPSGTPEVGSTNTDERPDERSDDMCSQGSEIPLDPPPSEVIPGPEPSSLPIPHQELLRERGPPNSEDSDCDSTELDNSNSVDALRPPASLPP

[2] = target: T2, Mitogen-activated protein kinase kinase kinase 13 (Homo sapiens, UniProt O43283); assay: LZK Biochemical Assay
T2 sequence (O43283 whole entry): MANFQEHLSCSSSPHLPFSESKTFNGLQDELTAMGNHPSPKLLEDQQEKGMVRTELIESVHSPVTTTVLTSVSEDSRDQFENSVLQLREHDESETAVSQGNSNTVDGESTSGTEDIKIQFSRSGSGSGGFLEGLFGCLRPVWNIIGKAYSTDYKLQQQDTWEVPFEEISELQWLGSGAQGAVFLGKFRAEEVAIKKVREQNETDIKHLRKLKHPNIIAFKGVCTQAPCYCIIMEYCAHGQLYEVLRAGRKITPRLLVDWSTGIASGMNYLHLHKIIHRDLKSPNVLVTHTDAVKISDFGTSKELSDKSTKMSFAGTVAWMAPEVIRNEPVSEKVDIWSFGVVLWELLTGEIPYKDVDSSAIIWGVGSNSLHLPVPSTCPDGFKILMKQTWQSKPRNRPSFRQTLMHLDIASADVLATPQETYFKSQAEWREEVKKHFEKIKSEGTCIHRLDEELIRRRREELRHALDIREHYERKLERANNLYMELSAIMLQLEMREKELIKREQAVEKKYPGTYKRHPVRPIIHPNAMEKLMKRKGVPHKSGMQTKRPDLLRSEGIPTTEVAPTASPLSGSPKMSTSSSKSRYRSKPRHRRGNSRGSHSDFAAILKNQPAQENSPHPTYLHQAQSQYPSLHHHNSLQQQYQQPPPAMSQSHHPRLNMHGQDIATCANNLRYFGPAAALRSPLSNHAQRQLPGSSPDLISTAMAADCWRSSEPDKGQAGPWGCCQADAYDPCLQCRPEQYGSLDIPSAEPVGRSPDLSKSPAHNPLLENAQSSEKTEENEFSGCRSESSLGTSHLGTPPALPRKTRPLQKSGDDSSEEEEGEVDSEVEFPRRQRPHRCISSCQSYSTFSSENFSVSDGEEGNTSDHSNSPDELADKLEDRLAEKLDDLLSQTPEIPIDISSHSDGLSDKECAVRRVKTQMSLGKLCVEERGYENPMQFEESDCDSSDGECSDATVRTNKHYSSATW
Method: All indicated concentrations final concentrations. […] Detection buffer: 25 mM Tris/HCl pH 7.5, 100 mM EDTA, 100 mM NaCl, 200 mM KF, 0.01% Tween 20, 1:500 Smart Block.

- IC50 [1]: 4.3 nM
- IC50 [2]: 41 nM
SMILES: COC[C@H](NC(=O)c1cc(-c2cc(C(=O)NC(C)C)n3nc(N)nc3c2)cs1)c1ccccc1 [US20230382904, Compound 155]
